This passage reports GI50 and TGI results from PubChem BioAssay (NCI).

Structures are written as SMILES.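 A five-concentration, 48-hour dose response in 96-well plates underlies each endpoint, interpolated linearly between surrounding concentrations. GI50 marks 50% less growth. TGI marks complete inhibition of growth.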

Test systems include 786-0 renal; A498 renal; CCRF-CEM leukemia; DU-145 prostate; HOP-62 NSCLC; HOP-92 NSCLC; NCI-H226 lung; OVCAR-8 ovarian; SK-MEL-2 melanoma; TK-10 renal.
Holding throughout (assay): inhibition of tumour cell growth, NCI panel, 48 h

On to `N#Cc1c(N)nn(C(=O)c2ccc(NC(=O)c3ccccn3)cc2)c1-c1ccc(Cl)cc1`, for which the GI50 in the experiment with 786-0 renal is 2.97 µM; with A498 renal, 15.1 µM; with CCRF-CEM leukemia, 8.86 µM; in the experiment with DU-145 prostate, 2.7 µM; with HOP-62 NSCLC, 2.53 µM; in the experiment on HOP-92 NSCLC, 2.31 µM. For the same compound, the GI50 is 3.08 µM in the experiment with NCI-H226 lung, 3.38 µM in the experiment on OVCAR-8 ovarian, 71.6 µM in the experiment on SK-MEL-2 melanoma and 3.65 µM in the experiment on TK-10 renal. Also, the TGI with 786-0 renal was 8.54 µM; in the experiment with A498 renal, over 100 µM; in the experiment with CCRF-CEM leukemia, over 100 µM; in the experiment with DU-145 prostate, 7.29 µM; in the experiment on HOP-62 NSCLC, 8.37 µM; in the experiment on HOP-92 NSCLC, 9.5 µM. Moreover, the TGI is 31 µM in the experiment with NCI-H226 lung, 17.7 µM with OVCAR-8 ovarian, over 100 µM in the experiment on SK-MEL-2 melanoma and 19.4 µM in the experiment with TK-10 renal.
